Assays:
[1] = Body weight in ovariectomized osteoporosis rat model; type: in vivo, Sprague-Dawley (SD) female rats; details: rat, in vivo
Method: Inducing osteoporosis animal models and experimental methods: • 1. 6-month old Sprague-Dawley (SD) female rats were purchased; • 2. These rats were divided into 7 groups, of which Group 1 was given pseudo-surgery, Group 2-7 underwent bilateral ovariectomies; • 3. On the 6th day after surgery, 1 mL/kg of vehicle alone was given orally to Group 1, Group 2 daily, Zoledronic Acid and Prolia were administered weekly by injections to Group 3, Group 4, respectively; 1, 3, 10 mg/kg of the compound of formula I was given orally every 3 days to Groups 5-7, respectively; • 4. Body weight and bone density were measured weekly, blood was drawn until the 118th day; • 5. Rats were then sacrificed to obtain kidneys, livers and rat tibia; • 6. Data were consolidated and processed.

[2] = Liver and kidney toxicity in ovariectomized osteoporosis rat model; type: in vivo, Sprague-Dawley (SD) female rats; details: ovariectomized rats, compared to commercially available drugs
Method: Inducing osteoporosis animal models and experimental methods: • 1. 6-month old Sprague-Dawley (SD) female rats were purchased; • 2. These rats were divided into 7 groups, of which Group 1 was given pseudo-surgery, Group 2-7 underwent bilateral ovariectomies; • 3. […] Body weight and bone density were measured weekly, blood was drawn until the 118th day; • 5. Rats were then sacrificed to obtain kidneys, livers and rat tibia; • 6. Data were consolidated and processed. [table]

RAW 264.7 cells = assay: Cytotoxicity test (MTT colorimetric assay); type: cell-based
From the text: MTT (3-(4,5-dimethylthiazol-2-yl)-2,5-diphenyl tetrazolium bromide is yellow when dissolved in a phenol red-free medium. The yellow MTT solution is reduced by succinate dehydrogenase in mitochondria of living cells into purple insoluble formazan crystals, deposited in the cells generating blue formazan crystals. The amount of formazan crystals produced is proportional to the number of viable cells (succinate dehydrogenase in dead cells is degraded and unable to reduce MTT). Formazan crystals can be dissolved in acidic isopropanol or dimethyl sulfoxide (DMSO), and an enzyme linked immunosorbent assay detector can be used to measure the light absorption value, therefore, MTT can be used as a marker for cell survival rate.
Cytotoxicity test of the compound of formula I in RAW 264.7 cells was studied and detected by using the MTT colorimetric assay. […] After being cultured in an incubator at 37° C. for 4 hours, equivalent amount of cell culture solution by volume was added into dimethyl sulfoxide to dissolve MTT Formazan, 100 μl was respectively collected and placed in a 96 well-plate, and the light absorption value at 570 nm was determined by using an enzyme immunosorbent assay detector. The Cell survival rate (%) was calculated by using the following formula: (light absorption value of drug-treated cells)/light absorption value of culture solution-treated cells)×100%.
Firstly, we would like to know whether the compound of formula I were toxic to RAW 264.7 cells, and concentrations appropriate for subsequent experiments were to be selected. After being treated with 0, 1, 5, 10, 20, 40, 80 μg/ml of the compound of formula I for 72 hours, detected with the MTT colorimetric assay. […] To confirm the selected concentrations of the compound of formula I would not produce cytotoxin in the subsequent experiments, 10 μg/ml, 20 μg/ml of the compound of formula I were respectively used for treatment of 3, 6, 9, 12 days, the culture solution was replaced with fresh ones of the same condition once every three days and then detected with the MTT colorimetric assay.

Structure (SMILES): CNC(=O)N[C@]1(C)CCC[C@@]2(C)C3CC[C@@]4(C)C[C@]3(CCC21)CC4=O (single isomer, unassigned; ent-16) [compound of formula I, ent-16-oxobeyeran-19-N-methylureido]
- effect on body weight [1]: different from commercially available drugs
- cytotoxicity in kidney (blood urea nitrogen, plasma creatinine) [2]: less cytotoxicity in kidney than Zoledronic acid
- cytotoxicity in liver (alanine aminotransferase) [2]: less cytotoxicity in liver than Proliaor
- cytotoxicity over time (MTT) (RAW 264.7 cells; 10 μg/ml, 3, 6, 9, 12 days): no cytotoxin was produced
- concentration above which cytotoxic (decreased survival rate) (RAW 264.7 cells; 72 hours): higher than 40 μg/ml
- IC50 (RAW 264.7 cells; Mus musculus, RAW264.7, 72 hours, 0-80 μg/ml, read-out: IC50 (cell survival rate, MTT)): ~40 µg/mL
